The test system of assay [1] is ischemic re-perfusion rat model. Description: Infarct lesion area and volume, ischemic re-perfusion rat model. It is filed as in vivo. How it is done: An influence of the cyclohexenone long-chain fatty alcoholic compound, which had been prepared in Preparation Example 2, on each of the area and volume of the infarct lesion was studied using an ischemic re-perfusion rat model.
The 8-week-old rats were occluded, at the middle brain artery thereof, with a nylon stopper for 2 hours, followed by intraperitoneal administration of the compound of Preparation Example 2 in amounts of 0.5 mg/kg, 2 mg/kg and 8 mg/kg, respectively, rightly before re-perfusion. After removal of the nylon stopper, re-perfusion was conducted. Twenty four hours after occlusion, the brain was enucleated and each of the area and volume of the infarct lesion was measured in a similar manner to Test 2.

For assay [2], the system named is middle-cerebral-artery permanently-occluded rat model. Description: Infarct lesion area and volume, middle-cerebral-artery permanently-occluded rat model. It is filed as in vivo. The source says:
An influence of the cyclohexenone long-chain fatty alcoholic compound, which had been obtained in Preparation Example 2, on the area and volume of the infarct lesion caused by ischemia was studied using a middle-cerebral-artery permanently-occluded rat model.
The middle cerebral artery of an 8-week-old rat was electrically coagulated and occluded by a bipolar coagulator (MICRO-3D [Mizuho Co., Ltd.]). The compound obtained in Preparation Example 2 was intraperitoneally administered in an amount of 0.3 mg/kg, 2 mg/kg and 8 mg/kg rightly after the occlusion of the middle cerebral artery, respectively. After 24 hours, the brain was enucleated and cut into slices of 2 mm thick. Each slice was stained with 1% 2,3,5-triphenyltetrazolium chloride (TTC), followed by the taking of photos. The photograph was analyzed and the area of the infarct lesion was measured. The volume of the infarct lesion was calculated from the below-described equation. […]
a: infarct area (B+4) on the cross-section 4 mm forward from the forehead, b: infarct area (B+2) on the cross-section 2 mm forward from the forehead, c: infarct area (B) on the cross-section of the forehead, d: infarct area (B-2) on the cross-section 2 mm backward from the forehead, and e: infarct area (B-4) on the-cross-section 4 mm backward from the forehead.

The mark [3] stands for this setting: 2 hours occlusion, intraperitoneal 0.5, 2 and 8 mg/kg rightly before re-perfusion, 24 hours after occlusion.
Where [4] appears, read: intraperitoneal dose of 2 mg/kg.

Each structure is given as a SMILES string.

In the case of `CC1=C(CCCCCCCCCCCCCCCO)C(C)(C)CCC1=O` [Preparation Example 2, 3-(15-hydroxypentadecyl)-2,4,4-trimethyl-2-cyclohexen-1-one], the “area of the infarct lesion” value in assay [1] (setting [3]) was “reduction”; in assay [2] (intraperitoneal 0.3, 2 and 8 mg/kg rightly after occlusion, brain taken after 24 hours, TTC staining), “reduction”. Besides, the “volume of the infarct lesion” value is “reduction” in assay [1] (setting [3]); “reduction” in assay [2] (intraperitoneal 0.3, 2 and 8 mg/kg rightly after occlusion, after 24 hours, V=a+2(b+c+d)+e). Besides, the brain protective action entry in assay [1] (setting [4]) and in assay [2] (setting [4]) was “marked brain protective action” in each case.
